Results published in ChEMBL document CHEMBL1127159, “Preparation and biological evaluation of -fluoromethyl--methylene--butyrolactone and -butyrolactam” (Bioorg Med Chem Lett, 1993).
Values after ≈ are worked out from the molar mass of the structure shown.

Tests used:
Type in all cases: functional, cell-based
SW480 = test: The compound was evaluated for antitumoral activity against human cancer cell line SW480 after 72 hr of incubation; conditions: SW480, 72 h
T-24 = test: The compound was evaluated for antitumoral activity against human cancer cell line T24 after 72 hr of incubation; conditions: T-24, 72 h
L1210/C = test: The compound was evaluated for antitumoral activity against mouse leukemia cell line L1210/c after 72 hr of incubation; conditions: L1210, 72 h
CCRF-CEM = test: The compound was evaluated for antitumoral activity against human leukemia cell line CCRF CEM after 72 hr of incubation
SK-MEL-28 = test: The compound was evaluated for antitumoral activity against human melanoma cell line P36 after 72 hr of incubation; conditions: SK-MEL-28, 72 h

SMILES	IC50 (SW480) [µg/mL]	IC50 (T-24) [µg/mL]	IC50 (L1210/C) [µg/mL]	IC50 (CCRF-CEM) [µg/mL]	IC50 (SK-MEL-28) [µg/mL]
C=C1CC(C(F)F)OC1=O (stereo not given)	4 (≈ 27 µM)	0.5 (≈ 3.38 µM)	3 (≈ 20.3 µM)	4 (≈ 27 µM)	2 (≈ 13.5 µM)
O=c1[nH]cc(F)c(=O)[nH]1 [FLUOROURACIL]	6 (≈ 46.1 µM)	6 (≈ 46.1 µM)	0.2 (≈ 1.54 µM)	4 (≈ 30.8 µM)	11 (≈ 84.6 µM)
